35 compounds from the NIST ThermoML archive (doi:10.1021/je200195q) can be followed below.

This data set in a line: activity coefficient (dimensionless); of the first substance listed, at infinite dilution; xn = mol fraction of the nth substance listed. Conditions: 101 kPa, Liquid, Chromatography, x1 = 0.

± gives the expanded uncertainty stated by the source.

With `CC1CCCC1` [methylcyclopentane] + CCCCn1cc[n+](C)c1.O=S(=O)([N-]S(=O)(=O)C(F)(F)C(F)(F)F)C(F)(F)C(F)(F)F, the activity coefficient (322.55 K) was 6.85 ± 0.47, the activity coefficient (342.75 K) amounted to 6.05 ± 0.41 and the activity coefficient (362.65 K) is 5.79 ± 0.4.

In the case of `C[N+](=O)[O-]` [nitromethane] + CCCCCCCCCCn1cc[n+](CCCCCCCCCC)c1C.O=S(=O)([N-]S(=O)(=O)C(F)(F)F)C(F)(F)F, the activity coefficient is 0.596 ± 0.042 (323.1 K), 0.559 ± 0.04 (333.15 K) and 0.536 ± 0.039 (343.15 K).

Turning to `C[N+](=O)[O-]` [nitromethane] + CCCCCC[n+]1ccn(C)c1.FC(F)(F)C(F)(F)[P-](F)(F)(F)(C(F)(F)C(F)(F)F)C(F)(F)C(F)(F)F, the activity coefficient was determined as 0.452 ± 0.036 (312.8 K), 0.438 ± 0.035 (332.85 K) and 0.41 ± 0.034 (354.65 K).

For `C[N+](=O)[O-]` [nitromethane] + CCCCn1cc[n+](C)c1.O=S(=O)([N-]S(=O)(=O)C(F)(F)C(F)(F)F)C(F)(F)C(F)(F)F, the activity coefficient worked out at 0.625 ± 0.043 (322.55 K), 0.682 ± 0.046 (342.75 K) and 0.699 ± 0.047 (362.65 K).

As to `C[N+](=O)[O-]` [nitromethane] + CCn1cc[n+](C)c1.CS(=O)(=O)[O-], the activity coefficient runs as follows: (312.55 K) 2.06 ± 0.14; (322.45 K) 1.26 ± 0.081; (332.45 K) 0.801 ± 0.052.

As for `CCCCCCCCC` [nonane] + CCCCCCCCCCn1cc[n+](CCCCCCCCCC)c1C.O=S(=O)([N-]S(=O)(=O)C(F)(F)F)C(F)(F)F, the activity coefficient reads like this: (323.1 K) 3.31 ± 0.23; (333.15 K) 3.17 ± 0.22; (343.15 K) 3.45 ± 0.23.

For the compound `CCCCCCCCC` [nonane] + CCCCCC[n+]1ccn(C)c1.FC(F)(F)C(F)(F)[P-](F)(F)(F)(C(F)(F)C(F)(F)F)C(F)(F)C(F)(F)F, the activity coefficient (312.8 K) turned out to be 17.7 ± 1.2, the activity coefficient (332.85 K) was found to be 15.5 ± 1.1 and the activity coefficient (354.65 K) stood at 12.4 ± 0.85.

As for `CCCCCCCCC` [nonane] + CCCCn1cc[n+](C)c1.O=S(=O)([N-]S(=O)(=O)C(F)(F)C(F)(F)F)C(F)(F)C(F)(F)F, the activity coefficient reads like this: (322.55 K) 31.5 ± 2.2; (342.75 K) 26 ± 1.8; (362.65 K) 21.8 ± 1.5.

Consider `CCCCCCCC` [octane] + CCCCCCCCCCn1cc[n+](CCCCCCCCCC)c1C.O=S(=O)([N-]S(=O)(=O)C(F)(F)F)C(F)(F)F, for which the activity coefficient (323.1 K) is 2.54 ± 0.17, the activity coefficient (333.15 K) was determined as 2.48 ± 0.17 and the activity coefficient (343.15 K) worked out at 2.45 ± 0.17.

Regarding `CCCCCCCC` [octane] + CCCCCC[n+]1ccn(C)c1.FC(F)(F)C(F)(F)[P-](F)(F)(F)(C(F)(F)C(F)(F)F)C(F)(F)C(F)(F)F, the activity coefficient turned out to be 12.2 ± 0.83 (312.8 K), 10.5 ± 0.72 (332.85 K) and 8.87 ± 0.6 (354.65 K).

Regarding `CCCCCCCC` [octane] + CCCCn1cc[n+](C)c1.O=S(=O)([N-]S(=O)(=O)C(F)(F)C(F)(F)F)C(F)(F)C(F)(F)F, the activity coefficient is, setting by setting: (322.55 K) 20.4 ± 1.4; (342.75 K) 17.3 ± 1.2; (362.65 K) 15.5 ± 1.1.

`CCCC(C)=O` [pentan-2-one] + CCCCCCCCCCn1cc[n+](CCCCCCCCCC)c1C.O=S(=O)([N-]S(=O)(=O)C(F)(F)F)C(F)(F)F: the activity coefficient by setting is: (323.1 K) 0.397 ± 0.034; (333.15 K) 0.404 ± 0.034; (343.15 K) 0.407 ± 0.034.

Turning to `CCCC(C)=O` [pentan-2-one] + CCCCCC[n+]1ccn(C)c1.FC(F)(F)C(F)(F)[P-](F)(F)(F)(C(F)(F)C(F)(F)F)C(F)(F)C(F)(F)F, the activity coefficient reads like this: (312.8 K) 0.271 ± 0.03; (332.85 K) 0.298 ± 0.031; (354.65 K) 0.311 ± 0.031.

In the case of `CCCC(C)=O` [pentan-2-one] + CCCCn1cc[n+](C)c1.O=S(=O)([N-]S(=O)(=O)C(F)(F)C(F)(F)F)C(F)(F)C(F)(F)F, the activity coefficient turned out to be 0.666 ± 0.045 (322.55 K), 0.686 ± 0.046 (342.75 K) and 0.701 ± 0.047 (362.65 K).

Take `CCCC(C)=O` [pentan-2-one] + CCn1cc[n+](C)c1.CS(=O)(=O)[O-]: the activity coefficient came out at 7.79 ± 0.53 (312.55 K), 7.7 ± 0.53 (322.45 K) and 7.57 ± 0.52 (332.45 K).

Take `CCC(=O)CC` [pentan-3-one] + CCCCCCCCCCn1cc[n+](CCCCCCCCCC)c1C.O=S(=O)([N-]S(=O)(=O)C(F)(F)F)C(F)(F)F: the activity coefficient is, setting by setting: (323.1 K) 0.37 ± 0.03; (333.15 K) 0.378 ± 0.033; (343.15 K) 0.386 ± 0.033.

As to `CCC(=O)CC` [pentan-3-one] + CCCCCC[n+]1ccn(C)c1.FC(F)(F)C(F)(F)[P-](F)(F)(F)(C(F)(F)C(F)(F)F)C(F)(F)C(F)(F)F, the activity coefficient is, setting by setting: (312.8 K) 0.236 ± 0.029; (332.85 K) 0.28 ± 0.03; (354.65 K) 0.301 ± 0.031.

Take `CCC(=O)CC` [pentan-3-one] + CCCCn1cc[n+](C)c1.O=S(=O)([N-]S(=O)(=O)C(F)(F)C(F)(F)F)C(F)(F)C(F)(F)F: the activity coefficient by setting is: (322.55 K) 0.624 ± 0.043; (342.75 K) 0.656 ± 0.045; (362.65 K) 0.695 ± 0.047.

`CCC(=O)CC` [pentan-3-one] + CCn1cc[n+](C)c1.CS(=O)(=O)[O-]: the activity coefficient was 7.58 ± 0.52 (312.55 K), 7.45 ± 0.51 (322.45 K) and 7.37 ± 0.5 (332.45 K).

For the compound `CCCO` [propan-1-ol] + CCCCCCCCCCn1cc[n+](CCCCCCCCCC)c1C.O=S(=O)([N-]S(=O)(=O)C(F)(F)F)C(F)(F)F, the activity coefficient runs as follows: (323.1 K) 1.31 ± 0.085; (333.15 K) 1.16 ± 0.074; (343.15 K) 1.06 ± 0.067.

Consider `CCCO` [propan-1-ol] + CCCCCC[n+]1ccn(C)c1.FC(F)(F)C(F)(F)[P-](F)(F)(F)(C(F)(F)C(F)(F)F)C(F)(F)C(F)(F)F, for which the activity coefficient by setting is: (312.8 K) 2.47 ± 0.17; (332.85 K) 1.96 ± 0.13; (354.65 K) 1.47 ± 0.096.

As to `CCCO` [propan-1-ol] + CCCCn1cc[n+](C)c1.O=S(=O)([N-]S(=O)(=O)C(F)(F)C(F)(F)F)C(F)(F)C(F)(F)F, the activity coefficient runs as follows: (322.55 K) 1.99 ± 0.14; (342.75 K) 1.62 ± 0.11; (362.65 K) 1.35 ± 0.088.

For the compound `CCCO` [propan-1-ol] + CCn1cc[n+](C)c1.CS(=O)(=O)[O-], the activity coefficient reads like this: (312.55 K) 0.742 ± 0.049; (322.45 K) 0.734 ± 0.049; (332.45 K) 0.722 ± 0.048.

In the case of `CC(C)O` [propan-2-ol] + CCCCCCCCCCn1cc[n+](CCCCCCCCCC)c1C.O=S(=O)([N-]S(=O)(=O)C(F)(F)F)C(F)(F)F, the activity coefficient runs as follows: (323.1 K) 1.27 ± 0.082; (333.15 K) 1.14 ± 0.073; (343.15 K) 1.03 ± 0.065.

In the case of `CC(C)O` [propan-2-ol] + CCCCCC[n+]1ccn(C)c1.FC(F)(F)C(F)(F)[P-](F)(F)(F)(C(F)(F)C(F)(F)F)C(F)(F)C(F)(F)F, the activity coefficient reads like this: (312.8 K) 2.06 ± 0.14; (332.85 K) 1.62 ± 0.11; (354.65 K) 1.26 ± 0.081.

For the compound `CC(C)O` [propan-2-ol] + CCCCn1cc[n+](C)c1.O=S(=O)([N-]S(=O)(=O)C(F)(F)C(F)(F)F)C(F)(F)C(F)(F)F, the activity coefficient by setting is: (322.55 K) 1.77 ± 0.12; (342.75 K) 1.46 ± 0.096; (362.65 K) 1.25 ± 0.08.

As to `CC(C)O` [propan-2-ol] + CCn1cc[n+](C)c1.CS(=O)(=O)[O-], the activity coefficient by setting is: (312.55 K) 0.924 ± 0.058; (322.45 K) 0.907 ± 0.058; (332.45 K) 0.877 ± 0.056.

For the compound `CCC=O` [propanal] + CCCCCC[n+]1ccn(C)c1.FC(F)(F)C(F)(F)[P-](F)(F)(F)(C(F)(F)C(F)(F)F)C(F)(F)C(F)(F)F, the activity coefficient (312.8 K) is 0.274 ± 0.03, the activity coefficient (332.85 K) was found to be 0.283 ± 0.03 and the activity coefficient (354.65 K) turned out to be 0.285 ± 0.031.

Consider `CCC=O` [propanal] + CCCCn1cc[n+](C)c1.O=S(=O)([N-]S(=O)(=O)C(F)(F)C(F)(F)F)C(F)(F)C(F)(F)F, for which the activity coefficient was determined as 0.539 ± 0.039 (322.55 K), 0.533 ± 0.039 (342.75 K) and 0.522 ± 0.039 (362.65 K).

For `CCC=O` [propanal] + CCn1cc[n+](C)c1.CS(=O)(=O)[O-], the activity coefficient (312.55 K) is 2.76 ± 0.19, the activity coefficient (322.45 K) stood at 2.71 ± 0.18 and the activity coefficient (332.45 K) was 2.65 ± 0.18.

Regarding `c1ccncc1` [pyridine] + CCCCCCCCCCn1cc[n+](CCCCCCCCCC)c1C.O=S(=O)([N-]S(=O)(=O)C(F)(F)F)C(F)(F)F, the activity coefficient runs as follows: (323.1 K) 0.328 ± 0.032; (333.15 K) 0.331 ± 0.032; (343.15 K) 0.334 ± 0.032.

On to `c1ccncc1` [pyridine] + CCCCCC[n+]1ccn(C)c1.FC(F)(F)C(F)(F)[P-](F)(F)(F)(C(F)(F)C(F)(F)F)C(F)(F)C(F)(F)F, for which the activity coefficient runs as follows: (312.8 K) 0.302 ± 0.031; (332.85 K) 0.326 ± 0.032; (354.65 K) 0.331 ± 0.032.

Regarding `c1ccncc1` [pyridine] + CCCCn1cc[n+](C)c1.O=S(=O)([N-]S(=O)(=O)C(F)(F)C(F)(F)F)C(F)(F)C(F)(F)F, the activity coefficient by setting is: (322.55 K) 0.386 ± 0.033; (342.75 K) 0.429 ± 0.035; (362.65 K) 0.45 ± 0.036.

With `ClC(Cl)(Cl)Cl` [tetrachloromethane] + CCCCCCCCCCn1cc[n+](CCCCCCCCCC)c1C.O=S(=O)([N-]S(=O)(=O)C(F)(F)F)C(F)(F)F, the activity coefficient was found to be 0.776 ± 0.051 (323.1 K), 0.777 ± 0.051 (333.15 K) and 0.777 ± 0.051 (343.15 K).

Consider `ClC(Cl)(Cl)Cl` [tetrachloromethane] + CCCCCC[n+]1ccn(C)c1.FC(F)(F)C(F)(F)[P-](F)(F)(F)(C(F)(F)C(F)(F)F)C(F)(F)C(F)(F)F, for which the activity coefficient turned out to be 2.19 ± 0.15 (312.8 K), 2.08 ± 0.14 (332.85 K) and 1.94 ± 0.13 (354.65 K).
